Assay results taken from patent publication US20260132118A1, “SALT FORMS OF R-MDMA AND METHODS USING THE SAME” (EmpathBio, Inc., priority 2022, published 2026).
“And” between values parts separate entries of the source, which are not always exact repeats. Equal values may be shown once.

Legend:
[1] = background; cited from earlier work
[2] = Approximate aqueous solubility by aliquot addition; settings: for Solubility: approximate aqueous solubility; for Observations (solubility experiment): aqueous
Source text: The small sample sizes, aliquot volumes, and kinetic nature of the solubility measurements contribute a degree of uncertainty to the reported values.

[3] = Physical stability testing: stressing solids at elevated relative humidity or storage, monitored by XRPD; assay type: physicochemical
[4] = Dynamic Vapor Sorption (DVS); assay type: physicochemical; settings: for DVS weight loss: desorption 95-6% RH; for DVS weight loss / DVS weight gain: 10% RH increments, nitrogen purge; for Solid form post-DVS (XRPD): post-DVS solids; for DVS weight gain: sorption 5-95% RH
Experimental: DVS data was collected on a Surface Measurement System DVS Intrinsic instrument. Samples were not dried prior to analysis. […] The equilibrium criterion used for analysis was less than 0.0100% weight change in 5 minutes with a maximum equilibration time of 3 hours. Data was not corrected for the initial moisture content of the samples.

[5] = listed as O-methyl Mandelate Form A

## CNC(C)Cc1ccc2c(c1)OCO2 (centres unmarked) [MDMA free base, 3,4-Methylenedioxymethamphetamine]
[1]
  Solubility in water (in words): insoluble in water

## CNC(C)Cc1ccc2c(c1)OCO2.Cl (centres unmarked) [MDMA hydrochloride salt]
[1]
  Solubility in water (in words): soluble in water

## CN[C@H](C)Cc1ccc2c(c1)OCO2.O=[N+]([O-])O [Nitrate Form A]
[2]
  Solubility: 3 ± 1 mg/mL and 3 mg/mL
  Observations (solubility experiment): clear solution
[3]; 13 days
  Physical stability upon stressing at ~90% RH: remained physically stable

## CN[C@H](C)Cc1ccc2c(c1)OCO2.COC(C(=O)O)c1ccccc1 [O-Methyl Mandelate Form A]
[2]
  Solubility: 26 ± 1 mg/mL and ~26 mg/mL
  Observations (solubility experiment): clear solution
[4]; 5% to 95% RH
  DVS desorption behaviour / hysteresis: all mass gained in sorption was lost on desorption with minimal hysteresis
[4]; DVS isotherm
  Hygroscopicity (in words): low kinetic hygroscopicity
[4]; between 5% and 95% RH
  Kinetic hygroscopicity (sorption/desorption): 0.2%
[4]
  DVS weight loss: 0.21±0.02%
  Solid form post-DVS (XRPD): remained unchanged
  DVS weight gain: 0.18±0.02% and 0.18%
[4]; [5]
  DVS weight loss: 0.21%
  Solid form post-DVS (XRPD): O-Methyl Mandelate Form A
  DVS weight gain: 0.18%
[3]; 8 days
  Physical stability upon stressing at ~90% RH: remained physically stable
